According to US20160000837A1, “COMPOSITIONS AND METHODS TO ALTER GUT MICROBIAL FERMENTATION USING SULFATE-REDUCING BACTERIA” (WASHINGTON UNIVERSITY, priority 2013, published 2016):

Assays:
D. piger [1] = assay: In vitro cross feeding between B. thetaiotaomicron and D. piger (growth in conditioned medium, OD600); type: cell-based, D. piger GOR1; conditions: for D. piger growth in medium conditioned by wild-type B. thetaiotaomicron grown on the named carbon substrate: 0.5% carbon substrate in minimal medium, filter-sterilized, lactate 30 mM added, no added sulfate
Description: A B. thetaiotaomicron strain Δbt0238 that lacks detectable sulfatase activity, and the isogenic wild-type strain were grown in separate cultures containing minimal medium with either a sulfated or non-sulfated carbon substrate (chondroitin sulfate and fructose, respectively).
Exponential phase cultures of B. thetaiotaomicron Δbt0238 and the isogenic wild-type parental strain (Benjdia et al., 2011; kindly provided by Eric Martens, University of Michigan and Olivier Berteau, INRA), grown in Mega Medium 2.0, were inoculated under anaerobic conditions (atmosphere of 5% H2, 20% CO2 and 75% N2) into Balch tubes containing minimal medium supplemented with either 0.5% (w/v) chondroitin sulfate purified from shark cartilage (Sigma) or 0.5% fructose (Sigma) (n=6 tubes/carbon substrate/strain). […] Cultures representing the same strain and carbon substrate were combined and bacteria were pelleted by centrifugation at 3,200×g at 4° C. for ˜20 min. The supernatant was removed and sterilized by passage through a 0.22 μm filter (Fisher). […] The pH of the conditioned medium was adjusted to ˜7.0 using potassium phosphate buffer (pH 7.2). One half of each conditioned medium preparation was used to fill anaerobic Balch tubes (in triplicate) while sulfate (14 mM Na2SO4 and 4.1 mM MgSO4) was added to the remaining conditioned medium prior to filling the tubes (in triplicate).

D. piger [2] = assay: COPRO-Seq relative abundance of D. piger in fecal microbiota of gnotobiotic mice fed sulfur-supplemented HF/HS diets; type: in vivo
Description: Six groups, each composed of two co-housed mice colonized with the 9-member model human gut microbiota were fed one of 13 diets, all based on the HF/HS diet (0.12% w/w SO4; see Table S2 of Rey et al. PNAS 110: 13582-13587 for diet composition). Each group of mice were started on the HF/HS diet and then given a sequence of four diets with differing sulfur content, each for a 7-day period. The sequence of presentation of the four diets was randomized so that that each diet was eventually fed to two different groups of co-housed animals.
DNA isolated from feces (and cecal contents) was used to prepare libraries for shotgun Illumina sequencing (McNulty et al., 2011). Briefly, 1 μg of DNA from each sample was fragmented by sonication to an average size of ˜500 bp and subjected to enzymatic blunting and adenine tailing. Customized Illumina adapters containing maximally distant 4 bp or 8 bp barcodes were ligated to the A-tailed DNA. Barcoded libraries were then pooled, subjected to gel electrophoresis for size selection (˜200 bp) and the size-selected DNA amplified by PCR using primers and cycling conditions recommended by Illumina. Amplicons were purified (QIAquick PCR Purification Kit, Qiagen) and sequenced using an Illumina GA-IIx or HiSeq2000 instrument, with libraries loaded onto the flow cell at a concentration of 2.0-2.5 pM. […]

O=C(CO)[C@@H](O)[C@H](O)[C@H](O)CO [fructose]
D. piger growth in medium conditioned by wild-type B. thetaiotaomicron grown on the named carbon substrate (D. piger [1]): lack of growth

chondroitin sulfate
D. piger levels in fecal microbiota relative to the HF/HS diet (D. piger [2]; HF/HS diet supplemented with 3% chondroitin sulfate, 7 days, 9-member community, p<0.05): doubled
D. piger growth in medium conditioned by wild-type B. thetaiotaomicron grown on the named carbon substrate (D. piger [1]): Growth of D. piger was only observed
ability of D. piger to metabolize the substrate (growth in medium harvested from B. thetaiotaomicron Δbt0238 cultures) (D. piger [1]; chondroitin sulfate-containing minimal medium, lactate added): not able to metabolize

CC(O)C(=O)O (stereo not shown) [lactate]
growth of D. piger with lactate as sole carbon and electron source (D. piger [1]; in the absence of sulfate, data not shown): does not support growth

O=S(=O)(O)O [sulfate]
relative abundance of D. piger in the 9-member model human microbiota (D. piger [2]; 600-fold change in dietary sulfate (0.001% to 0.6% w/w) in HF/HS-based diets, 7 days each): did not affect
D. piger growth in fructose-conditioned medium after addition of exogenous sulfate (D. piger [1]; 14 mM Na2SO4 and 4.1 mM MgSO4 added): allowed growth
